{"source": "paper PMC7075522", "about": "(ACS infectious diseases, 2016)", "key": {"[1]": {"test_system": "DENV in BHK-21 and NIH3T3 cells", "conditions": "cited from earlier work"}, "[2]": {"test_system": "sera of 24 SARS-positive patients", "assay_type": "binding, human"}}, "data": [{"substance": "CPFLKQNEPEDIDCW", "values": [{"measurement": "ADE of DENV", "setting": "[1]", "value": "blocked this ADE in a dose-dependent manner"}]}, {"substance": "LYQDVN [S597–602]", "values": [{"measurement": "Immunoreactivity with sera", "setting": "[2]", "value": "immunoreactive with the tested sera of 24 SARS-positive patients"}]}]}
